Results published in ChEMBL document CHEMBL1201862, “PubChem BioAssay data set” (2004).
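96-well plates; 48 h exposure; 5 concentrations. Endpoints by linear interpolation between flanking doses. Not reached: highest tested concentration assigned. Here, GI50 denotes the concentration required for 50% inhibition of growth.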 The source made the active and inactive calls. Rule as the data show it: active = GI50 up to about 1.1 µM and inactive = higher.

How the values were obtained:
Assay in all cases: inhibition of tumour cell growth, NCI panel, 48 h
A549 = tested on: A549
EKVX = tested on: EKVX
HCT-116 = tested on: HCT-116
HT-29 = tested on: HT-29
IGROV-1 = tested on: IGROV-1
M14 = tested on: M14
NCI-H23 = tested on: NCI-H23
NCI-H460 = tested on: NCI-H460
NCI-H522 = tested on: NCI-H522
OVCAR-3 = tested on: OVCAR-3
OVCAR-5 = tested on: OVCAR-5
RXF 393 = tested on: RXF 393
SK-OV-3 = tested on: SK-OV-3
SW-620 = tested on: SW-620
U-251 = tested on: U-251
UO-31 = tested on: UO-31
ACHN = tested on: ACHN
CAKI-1 = tested on: CAKI-1
MCF7 = tested on: MCF7
A498 = tested on: A498

Measured: GI50

O=C1C(Cl)N(c2ccccc2)C1c1c[nH]c2ccccc12 (stereo not drawn)
inactive: A549 > 100 µM | EKVX > 100 µM | HCT-116 > 100 µM | HT-29 > 100 µM | IGROV-1 > 100 µM | M14 > 100 µM | NCI-H23 > 100 µM | NCI-H460 > 100 µM | NCI-H522 > 100 µM | OVCAR-3 > 100 µM | OVCAR-5 46 µM | RXF 393 > 100 µM | SK-OV-3 > 100 µM | SW-620 > 100 µM | U-251 > 100 µM | UO-31 65.6 µM

COc1ccc2c(c1)CC1Cc3ccccc3CCN1C2 (stereo not drawn)
inactive: A549 28.8 µM | ACHN 64 µM | CAKI-1 20.3 µM | EKVX 59 µM | HCT-116 40.1 µM | HT-29 32.4 µM | IGROV-1 38 µM | M14 23.6 µM | MCF7 74.5 µM | NCI-H23 70.3 µM | NCI-H460 38.9 µM | NCI-H522 15.3 µM | OVCAR-3 35.1 µM | OVCAR-5 22.6 µM | RXF 393 25.7 µM | SK-OV-3 20.5 µM | SW-620 76 µM | U-251 76 µM | UO-31 37.2 µM

C=C(C(=O)C(=O)Oc1ccc(Cl)cc1)C(=O)c1ccc(C)cc1
inactive: A498 > 100 µM | A549 78 µM | ACHN 91.4 µM | CAKI-1 94.4 µM | EKVX > 100 µM | HCT-116 16.7 µM | HT-29 31.1 µM | IGROV-1 > 100 µM | M14 28.3 µM | NCI-H23 > 100 µM | NCI-H460 83 µM | NCI-H522 17.9 µM | OVCAR-3 46.8 µM | OVCAR-5 > 100 µM | RXF 393 26.4 µM | SK-OV-3 > 100 µM | SW-620 19.3 µM | U-251 20.7 µM | UO-31 40.2 µM

O=C(O)c1cc2sc(C(=O)O)cc2s1
inactive: A498 > 100 µM | A549 > 100 µM | CAKI-1 > 100 µM | HCT-116 > 100 µM | HT-29 > 100 µM | IGROV-1 > 100 µM | M14 > 100 µM | NCI-H23 > 100 µM | NCI-H460 > 100 µM | NCI-H522 > 100 µM | OVCAR-3 > 100 µM | OVCAR-5 > 100 µM | RXF 393 > 100 µM | SK-OV-3 > 100 µM | SW-620 > 100 µM | U-251 > 100 µM | UO-31 > 10 µM

O=c1oc2ccccc2n1P(=O)(n1c(=O)oc2ccccc21)n1c(=O)oc2ccccc21
inactive: A498 > 100 µM | A549 > 100 µM | ACHN > 100 µM | CAKI-1 > 100 µM | EKVX 97.7 µM | HCT-116 > 100 µM | HT-29 > 100 µM | IGROV-1 > 100 µM | M14 > 100 µM | NCI-H23 > 100 µM | NCI-H460 > 100 µM | NCI-H522 > 100 µM | OVCAR-3 > 100 µM | OVCAR-5 > 100 µM | RXF 393 > 100 µM | SK-OV-3 > 100 µM | SW-620 > 100 µM | U-251 > 100 µM | UO-31 > 100 µM

CC(=O)Nc1ccc(OCC(O)CO)cc1 (stereo not drawn)
inactive: A498 > 100 µM | A549 > 100 µM | ACHN > 100 µM | CAKI-1 > 100 µM | EKVX > 100 µM | HCT-116 > 100 µM | HT-29 > 100 µM | IGROV-1 > 100 µM | M14 > 100 µM | NCI-H23 > 100 µM | NCI-H460 > 100 µM | NCI-H522 > 100 µM | OVCAR-3 > 100 µM | OVCAR-5 > 100 µM | RXF 393 > 100 µM | SK-OV-3 > 100 µM | SW-620 8.3 µM | U-251 56.5 µM | UO-31 > 100 µM

O=[N+]([O-])C(=C/c1ccccc1)/C(=C\c1ccccc1)[N+](=O)[O-]
inactive: A549 28.6 µM | ACHN 16.9 µM | CAKI-1 15.7 µM | EKVX 17.3 µM | HCT-116 17.8 µM | HT-29 17.6 µM | IGROV-1 16.8 µM | M14 19.1 µM | MCF7 14.9 µM | NCI-H23 15.2 µM | NCI-H460 14.8 µM | OVCAR-3 19.5 µM | OVCAR-5 22 µM | RXF 393 10.2 µM | SK-OV-3 20 µM | SW-620 13.5 µM | U-251 15.6 µM | UO-31 17.5 µM

COc1cc2c(cc1OC)-c1cc3ccccc3c(=O)n1CC2
inactive: A549 11.4 µM | ACHN 37.5 µM | CAKI-1 27.2 µM | EKVX 24.6 µM | HCT-116 10.4 µM | HT-29 24.8 µM | IGROV-1 19.5 µM | M14 31.2 µM | MCF7 28.3 µM | NCI-H23 37.5 µM | NCI-H460 28.2 µM | NCI-H522 16.1 µM | OVCAR-3 22 µM | OVCAR-5 31.8 µM | RXF 393 2.33 µM | SK-OV-3 13.3 µM | SW-620 29.1 µM | U-251 16.4 µM | UO-31 19.9 µM

COc1cc(Br)c(CC2C3=C(CCN2C(=O)C2CCC2)CC(=O)CC3)cc1O (stereo not drawn)
inactive: A549 61.7 µM | ACHN 27.5 µM | EKVX 30.2 µM | HCT-116 30.3 µM | HT-29 24.9 µM | IGROV-1 36.3 µM | M14 33.4 µM | NCI-H23 18.2 µM | NCI-H460 45.3 µM | NCI-H522 14.5 µM | OVCAR-3 23.6 µM | OVCAR-5 > 100 µM | SK-OV-3 56.9 µM | SW-620 34.6 µM | U-251 42.7 µM | UO-31 55.6 µM

O=C(CCN(CCO)CCO)Nc1ccc2c(c1)C(=O)c1ccc(NC(=O)CCN(CCO)CCO)cc1C2=O
inactive: A498 9.86 µM | A549 44.4 µM | ACHN 9.29 µM | CAKI-1 5.56 µM | EKVX 5.69 µM | HCT-116 7.36 µM | HT-29 28.1 µM | IGROV-1 13.7 µM | M14 12.4 µM | NCI-H23 38.7 µM | NCI-H460 10.8 µM | NCI-H522 5.89 µM | OVCAR-3 16.1 µM | OVCAR-5 > 100 µM | RXF 393 4 µM | SK-OV-3 14.9 µM | SW-620 6.73 µM | U-251 22.3 µM | UO-31 10.4 µM

NC1(C(=O)O)CCCC1 [CYCLOLEUCINE]
inactive: A549 > 625 µM | CAKI-1 > 625 µM | EKVX > 578 µM | HCT-116 > 625 µM | HT-29 > 625 µM | IGROV-1 > 625 µM | MCF7 > 625 µM | NCI-H23 > 625 µM | NCI-H460 > 625 µM | NCI-H522 > 625 µM | OVCAR-3 > 62.5 µM | OVCAR-5 > 625 µM | RXF 393 > 625 µM | SK-OV-3 > 625 µM | SW-620 > 625 µM | U-251 > 625 µM | UO-31 > 625 µM
